Source: ChEMBL document CHEMBL1201862, “PubChem BioAssay data set” (2004)
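All cell lines were grown in 96-well plates and treated with compound for 48 hours. GI50 marks 50% less growth.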 Activity calls are given as the source filed them. No stated cut-off is given here; in the data, active = GI50 up to about 1.1 µM and inactive = higher.

How the values were obtained:
Assay in all cases: NCI anticancer screen, dose series, 48 h
KM-20L2 = system: KM-20L2
TK-10 = system: TK-10
UACC-257 = system: UACC-257
SNB-75 = system: SNB-75
RPMI-8226 = system: RPMI-8226
HCT-15 = system: HCT-15
SF-539 = system: SF-539
DMS-114 = system: DMS-114
KM12 = system: KM12
SK-MEL-28 = system: SK-MEL-28
UACC-62 = system: UACC-62
HT-29 = system: HT-29
SK-MEL-5 = system: SK-MEL-5
RXF 393 = system: RXF 393
LXFL 529 = system: LXFL 529
NCI-H226 = system: NCI-H226
CAKI-1 = system: CAKI-1
SNB-19 = system: SNB-19
NCI/ADR-RES = system: NCI/ADR-RES
T47D = system: T47D

| Compound | GI50 (KM-20L2) | GI50 (TK-10) | GI50 (UACC-257) | GI50 (SNB-75) | GI50 (RPMI-8226) | GI50 (HCT-15) | GI50 (SF-539) | GI50 (DMS-114) | GI50 (KM12) | GI50 (SK-MEL-28) | GI50 (UACC-62) | GI50 (HT-29) | GI50 (SK-MEL-5) | GI50 (RXF 393) | GI50 (LXFL 529) | GI50 (NCI-H226) | GI50 (CAKI-1) | GI50 (SNB-19) | GI50 (NCI/ADR-RES) | GI50 (T47D) |
| --- | --- | --- | --- | --- | --- | --- | --- | --- | --- | --- | --- | --- | --- | --- | --- | --- | --- | --- | --- | --- |
| O=C(Nc1cc(Cl)ccc1Cl)c1cc2cccc(Cl)c2oc1=O | > 100 µM (inactive) | > 100 µM (inactive) | 61.2 µM (inactive) | 37.1 µM (inactive) | > 100 µM (inactive) | > 100 µM | > 100 µM (inactive) | > 100 µM (inactive) | > 100 µM (inactive) | > 100 µM (inactive) | > 100 µM (inactive) | > 100 µM (inactive) | > 100 µM (inactive) | > 100 µM (inactive) | – | – | – | – | – | – |
| CC1=C(C(=O)Nc2ccccc2C)C(c2ccco2)C(C(=O)Nc2ccccc2C)=C(C)N1C | – | > 100 µM (inactive) | > 100 µM (inactive) | – | > 100 µM (inactive) | – | > 100 µM (inactive) | > 100 µM (inactive) | > 100 µM (inactive) | > 100 µM (inactive) | > 100 µM (inactive) | > 100 µM (inactive) | > 100 µM (inactive) | > 100 µM (inactive) | > 100 µM (inactive) | > 100 µM (inactive) | > 100 µM (inactive) | > 100 µM (inactive) | – | – |
| O=C(N/C(=C\c1cc(Cl)ccc1Cl)c1nc2cc(Cl)ccc2[nH]1)c1ccccc1 | 18.2 µM (inactive) | 3.78 µM (inactive) | 15 µM (inactive) | 19.1 µM (inactive) | 12.2 µM (inactive) | 16.4 µM | 20.1 µM (inactive) | 15.4 µM (inactive) | 15.4 µM (inactive) | 17.4 µM (inactive) | 11.4 µM (inactive) | 16.4 µM (inactive) | 13.2 µM (inactive) | 15.4 µM (inactive) | 13.6 µM (inactive) | 17.3 µM (inactive) | 22 µM (inactive) | 22.4 µM (inactive) | – | – |
| C/C(=N\NS(=O)(=O)c1ccc(C)cc1)c1cc2ccccc2n1C | > 100 µM (inactive) | – | > 100 µM (inactive) | 59.2 µM (inactive) | > 100 µM (inactive) | > 100 µM | > 100 µM (inactive) | > 100 µM (inactive) | > 100 µM (inactive) | – | 76.2 µM (inactive) | 76 µM (inactive) | > 100 µM (inactive) | – | > 100 µM (inactive) | – | – | 69.8 µM (inactive) | – | – |
| CCc1cccc(C)c1NC(C)=O | > 100 µM (inactive) | > 100 µM (inactive) | > 100 µM (inactive) | > 100 µM (inactive) | > 100 µM (inactive) | > 100 µM | > 100 µM (inactive) | > 100 µM (inactive) | > 100 µM (inactive) | > 100 µM (inactive) | > 100 µM (inactive) | > 100 µM (inactive) | > 100 µM (inactive) | > 100 µM (inactive) | > 100 µM (inactive) | > 100 µM (inactive) | > 100 µM (inactive) | – | – | – |
| O=C(O)C1=Cc2cccc3cccc(c23)C1=O | > 100 µM (inactive) | > 100 µM (inactive) | > 100 µM (inactive) | > 100 µM (inactive) | > 100 µM (inactive) | > 100 µM | – | > 100 µM (inactive) | > 100 µM (inactive) | > 100 µM (inactive) | > 100 µM (inactive) | > 100 µM (inactive) | > 100 µM (inactive) | > 100 µM (inactive) | > 100 µM (inactive) | > 100 µM (inactive) | > 100 µM (inactive) | > 100 µM (inactive) | – | – |
| O=C(c1cccs1)N(C(=S)N1CCN(c2ccccn2)CC1)c1ccccc1 | > 100 µM (inactive) | > 100 µM (inactive) | 83.2 µM (inactive) | > 100 µM (inactive) | > 100 µM (inactive) | 61 µM | > 100 µM (inactive) | 53 µM (inactive) | > 100 µM (inactive) | > 100 µM (inactive) | 46.5 µM (inactive) | > 100 µM (inactive) | 41.6 µM (inactive) | 35 µM (inactive) | 39.4 µM (inactive) | 29 µM (inactive) | 76 µM (inactive) | > 100 µM (inactive) | – | – |
| CC1=NN(C(=O)c2ccccc2O)C(=O)/C1=C/c1cccc(O)c1 | 25.5 µM (inactive) | 4.76 µM (inactive) | 1.21 µM (inactive) | 0.258 µM (active) | 0.731 µM (active) | 1.46 µM | 0.171 µM (active) | – | 0.389 µM (active) | 50.6 µM (inactive) | 0.274 µM (active) | 39.2 µM (inactive) | 3.2 µM (inactive) | 0.161 µM (active) | 0.276 µM (active) | 8.51 µM (inactive) | > 100 µM (inactive) | 0.543 µM (active) | 6.21 µM (inactive) | 0.472 µM (active) |
